Experimental data published in a flash point compilation (Sun et al. 2020).

SMILES	flash point [°C]
ClCC(Cl)(Cl)Cl [1,1,1,2-tetrachloroethane]	47
C=C(Cl)Cl [1,1-dichloroethylene]	-25
CCC(O)CO (stereo not drawn) [1,2-butanediol]	93
Clc1ccccc1Cl [1,2-dichlorobenzene]	67
CCC(Cl)CCl (stereo not drawn) [1,2-dichlorobutane]	26
SCCS [1,2-ethanedithiol]	50
CC(N)CN (stereo not drawn) [1,2-propanediamine]	33
NCCCN [1,3-propanediamine]	48
OCCCO [1,3-propanediol]	131
OCCCCO [1,4-butanediol]	135
N#CCCCCC#N [1,4-dicyanobutane]	159
C=CCCC=C [1,5-hexadiene]	-27
OCCCCCO [1,5-pentanediol]	136
SCCCCCS [1,5-pentanedithiol]	95
CCCCCBr [1-bromopentane]	31
CCCCCCCCl [1-chloroheptane]	41
CC(=O)C1CC1 [1-cyclopropylethanone]	13
CCCCCCCF [1-fluoroheptane]	13
CCCCCCI [1-iodohexane]	67
CN1CCCC1 [1-methylpyrrolidine]	-18
CCCCCCCCS [1-octanethiol]	69
C=CCCCCCC [1-octene]	21
CC(C)(Cl)Cl [2,2-dichloropropane]	-5
CC(=O)CC(C)=O [2,4-pentanedione]	34
CC=CC#N [2-butenenitrile]	20
CN(C)CCO [2-dimethylaminoethanol]	40
C=CC(=O)OCC(CC)CCCC (stereo not drawn) [2-ethylhexyl acrylate]	86

The next lines start with the values.

flash point [°C]	SMILES
15	CC1CCCCC1C (stereo not drawn) [1,2-dimethylcyclohexane]
10	CC1CCC(C)CC1 (stereo not drawn) [1,4-dimethylcyclohexane]
64	CCc1ccc(Cl)cc1 [1-chloro-4-ethylbenzene]
-10	CCCCOC [1-methoxybutane]
86	CN1CCCC1=O [1-methyl-2-pyrrolidinone]
82	Cc1cccc2ccccc12 [1-methylnaphthalene]
15	Cn1cccc1 [1-methylpyrrole]
4	CC(C)(C)C#N [2,2-dimethylpropanenitrile]
57	Cc1cc(C)nc(C)c1 [2,4,6-trimethylpyridine]
51	COC1C=CC(OC)O1 (stereo not drawn) [2,5-dimethoxy-2,5-dihydrofuran]
101	CC(O)CCC(C)O (stereo not drawn) [2,5-hexanediol]
-11	C1=CC2C=CC1C2 [2,5-norbornadiene]
67	CC(C)(N)CO [2-amino-2-methyl-1-propanol]
53	COC(CBr)OC [2-bromo-1,1-dimethoxyethane]
-27	CC(C)(C)Cl [2-chloro-2-methylpropane]
34	O=C1C=CCCC1 [2-cyclohexen-1-one]
46	CCCCC(C=O)CC (stereo not drawn) [2-ethylhexanal]
29	CCC1=NCCO1 [2-ethyloxazoline]

Remark: another data set of the same source

SMILES	flash point [°C]
Cc1cc(C)cc(C)c1 [1,3,5-trimethylbenzene]	50.00
C1CCCCC1 [cyclohexane]	-20.00
CCCCCC [hexane]	-23.00
Cc1ccccc1 [toluene]	4.00

Further lines, results first:

flash point [°C]	SMILES
44.00	Cc1cccc(C)c1C [1,2,3-trimethylbenzene]
74.00	CNCCO [2-(methylamino)ethanol]
74.00	CCCCCCCCCCCC [dodecane]

Remark: another data set of the same source

SMILES	flash point [°C]
Cc1cc(C)cc(C)c1 [1,3,5-trimethylbenzene]	44
C1CCCCC1 [cyclohexane]	-18
CCCCCC [hexane]	-26
C=CC(=C)C [isoprene]	-48
Cc1cccc(C)c1 [m-xylene]	25
COC(C)=O [methylacetate]	-13
C=CC(=O)OC [methylacrylate]	-3
C1COCCN1 [morpholine]	31
O=[N+]([O-])C1CCCCC1 [nitrocyclohexane]	81
O=[N+]([O-])C1CCCC1 [nitrocyclopentane]	67
CC[N+](=O)[O-] [nitroethane]	28
CCCCCCCCC#N [nonanenitrile]	82
CCCCCCCCCN [nonylamine]	74
CCCCCCCCCOC=O [nonylformate]	88
CCCCCCCC#N [octanenitrile]	74
Cc1ccc(C)cc1 [p-xylene]	25
CCCCC=O [pentanal]	8
CCCCC#N [pentanenitrile]	32
CC(=O)C(C)(C)C [pinacolone]	5
C=COCCC [propylvinylether]	-22
c1ccncc1 [pyridine]	17
C1CCOC1 [tetrahydrofuran]	-21
Cc1ccccc1 [toluene]	7
C1CC[C@H]2CCCC[C@@H]2C1 [trans-decalin]	53
CCCCCCCCCCC=O [undecanal]	95
C=COC(=O)CCC [vinylbutanoate]	20
C=CC1CCCCC1 [vinylcyclohexane]	21
C=COC(=O)CC [vinylpropanoate]	6

The next lines start with the values.

flash point [°C]	SMILES
51	Cc1cccc(C)c1C [1,2,3-trimethylbenzene]
72	CNCCO [2-(methylamino)ethanol]
71	CCCCCCCCCCCC [dodecane]
18	CC(=O)OCC(C)C [isobutylacetate]
46	CCCC(=O)OCC(C)C [isobutylbutanoate]
41	C=C(C)C(=O)OCC(C)C [isobutylmethacrylate]
-29	COCC(C)C [isobutylmethylether]
-9	C=COCC(C)C [isobutylvinylether]
36	CC(=O)OCCC(C)C [isopentylacetate]
62	CC(C)CCc1ccccc1 [isopentylbenzene]
59	CCCC(=O)OCCC(C)C [isopentylbutanoate]
22	CC(C)CCOC=O [isopentylformate]
-32	CC(C)N [isopropylamine]
24	CCCC(=O)OC(C)C [isopropylbutanoate]
35	CC(C)C1CCCCC1 [isopropylcyclohexane]
14	CC(C)C1CCCC1 [isopropylcyclopentane]
-14	CC(C)OC=O [isopropylformate]
86	Cc1cccc(O)c1 [m-cresol]
52	CCCc1cccc(C)c1 [m-propyltoluene]
3	COC(=O)C(C)C [methyl2-methylpropanoate]
41	CCCCCC(=O)OC [methylhexanoate]
69	CCCCCCCC(=O)OC [methyloctanoate]
-7	CCC(C)(C)OC [methyltert-pentylether]
50	CC(C)(C)Cc1ccccc1 [neopentylbenzene]
91	CCCCCCCCCOC(C)=O [nonylacetate]
55	CCc1ccccc1CC [o-diethylbenzene]
36	CCc1ccc(C)cc1 [p-ethyltoluene]

flash point [°C]	SMILES
101	CCCCC(=O)OC(=O)CCCC [pentanoicanhydride]
39	CCCCCOC(C)=O [pentylacetate]
120	CCCCCOC(=O)c1ccccc1 [pentylbenzoate]
53	CCCCCOC(=O)CC [pentylpropanoate]
63	CC(C)(C)C(=O)OC(=O)C(C)(C)C [pivalicanhydride]
-27	CCC=O [propanal]
30	CCCOC(=O)C(C)C [propyl2-methylpropanoate]
35	CCCOC(=O)CCC [propylbutanoate]
35	C=C(C)C(=O)OCCC [propylmethacrylate]
22	CCCOC(=O)CC [propylpropanoate]
-19	CCC(C)N (stereo not drawn) [sec-butylamine]
4	CC(=O)OC(C)(C)C [tert-butylacetate]
11	CC(C)(C)O [tert-butylalcohol]
-38	CC(C)(C)N [tert-butylamine]
44	CC(C)(C)c1ccccc1 [tert-butylbenzene]
-9	CC(C)(C)OC=O [tert-butylformate]
-3	CSC(C)(C)C [tert-butylmethylsulfide]
-17	C=COC(C)(C)C [tert-butylvinylether]
6	C[C@H]1CC[C@H](C)CC1 [trans-1,4-dimethylcyclohexane]
14	C/C=C/CCCCC [trans-2-octene]
-45	C/C=C/CC [trans-2-pentene]
-7	CC/C=C/CCC [trans-3-heptene]
70	C[C@H]1CC[C@H](O)CC1 [trans-4-methylcyclohexanol]
8	CCC/C=C/CCC [trans-4-octene]
35	CCOC(OCC)OCC [triethoxymethane]
35	CCCN(CCC)CCC [tripropylamine]
